From ChEMBL document CHEMBL4840301, “Homophymamide A, Heterodetic Cyclic Tetrapeptide from a Homophymia sp. Marine Sponge: A Cautionary Note on Configurational Assignment of Peptides That Contain a Ureido Linkage” (J Nat Prod, 2021) come the findings set out here.

SMILES strings stand for the structures.

In general, IC50 refers to the concentration at which inhibition is half-maximal. The low end stands for greater potency in that assay, the high end for weaker potency in that assay.

In the experiment the target is T1, Carboxypeptidase B (Sus scrofa, UniProt P09955).
T1 sequence (P09955 whole entry): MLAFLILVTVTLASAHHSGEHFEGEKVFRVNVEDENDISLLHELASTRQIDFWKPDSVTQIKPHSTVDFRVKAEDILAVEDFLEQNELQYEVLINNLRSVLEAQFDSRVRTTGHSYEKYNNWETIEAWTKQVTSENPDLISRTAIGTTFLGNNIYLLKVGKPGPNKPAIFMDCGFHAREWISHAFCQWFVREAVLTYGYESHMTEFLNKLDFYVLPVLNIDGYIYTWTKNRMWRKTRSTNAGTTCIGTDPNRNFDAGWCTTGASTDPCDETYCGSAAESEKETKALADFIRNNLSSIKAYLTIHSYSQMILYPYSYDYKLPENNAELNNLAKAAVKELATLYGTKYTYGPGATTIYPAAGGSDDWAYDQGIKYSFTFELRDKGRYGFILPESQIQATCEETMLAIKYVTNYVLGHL
Put plainly: Inhibition of carboxypeptidase B in porcine pancreas using hippuryl-L-Arg as substrate preincubated with substrate for 2 mins followed by enzyme addition and measured after 5 mins by colorimetric method. It counts as tissue-based.

With `CC[C@H](C)[C@@H]1NC(=O)[C@H](CC(C)C)N(C)C(=O)[C@H](C)NC(=O)[C@H](NC(=O)N[C@@H](CCCNC(=N)N)C(=O)O)CCCCNC1=O`, inhibition was half-maximal at 590 nM (IC50).
